Test results as given in patent publication US11084852B2, “Ubiquitin interacting motif peptides as therapeutics” (OKLAHOMA MEDICAL RESEARCH FOUNDATION, priority 2015, dated 2021).
Positions of bridges follow the written chain, without caps; N, C: chain ends. Non-standard residues stand in square brackets, D forms with d. Residues, ends and D or L forms follow the SMILES beside them. No end group written: not given here. *: point of attachment. FITC = O=C1OC2(c3ccc(O)cc3Oc3cc(O)ccc32)c2ccc(NC(=S)*)cc21

Columns and labels:
[1] = cited from earlier work
gliomas = conditions: before, at the time of or after tumor implantation; cited from earlier work
[2] = Toxicity analysis of UPI peptide, plasma biomarkers; format: in vivo, mice; set-up: ALB: unit not given here; conditions: for ALB: wild type mice, i.v. every second day up to 3 months
Protocol: Age and gender matched wild type mice were intravenously injected with PBS (Control) or different concentration of UPI peptide every second day for up to 3 months. Plasma biochemical parameters were evaluated by the UT-Southwestern Medical Center Core Facility in Dallas, Tex.

atherosclerotic lesion = assay: ApoE-/- mouse atherosclerosis model; conditions: in vivo
Excerpt: (§1) FIGS. 25A-E. Therapeutic potential in atherosclerosis animal models. (FIG. 25A) Targeting lyp-UIM peptide to atheroma by FITC conjugated peptide. (FIG. 25B). […] (FIG. 25C) Quantification for FIG. 25B, red bars represent lesion area by percentile; green bars represent macrophage percentile in different treatment. P values is indicated in the graphs.

atherosclerosis lesion = assay: Carotid atherosclerotic mouse model; format: in vivo
Excerpt: as §1

HUVEC^αvβ3 cells = assay: Targeting and localization of FITC-conjugated peptides in cultured HUVEC; format: cell-based, human
Protocol: FIGS. 6A-E. Targeting and localization of UPI peptides in cultured HUVEC^αvβ3. (FIGS. 6A-C) HUVECs were co-transfected with integrins αv and β3 plasmids by electroporation (Nucleofactor device, Lonza), generating HUVEC^αvβ3 cells. 10 μM FUPI (FITC-conjugated UPI) peptide was added to HUVEC^αvβ3 cells or pcDNA transfected control HUVECs.
To ensure targeting specificity and efficacy of the UPI, the inventors treated HUVEC overexpressing αvβ3 integrin (HUVEC^αvβ3) with FITC-conjugated UPI (FUPI) or AP-UIM (FITC-AP-UIM) (Table 2). Normal quiescent endothelial cells, such as HUVEC, express endogenous αvβ3 integrin. However, compared to tumor endothelial cells this expression is considerably lower. By overexpressing αvβ3 integrin in HUVEC, the inventors distinguished peptide targeting to endothelial cells in quiescent versus tumor vasculature. Overexpression of αvβ3 integrin was monitored by FACS and Western blotting (FIGS. 6A-C). […] Given the selective nature of the UPI peptide in vitro, the inventors next validated its tumor vascular-targeting efficacy in vivo after intravenous (i.v.) administration into Lewis lung carcinoma (LLC) and B16F10 (B16) melanoma subcutaneous tumor-bearing mice. […]

[3] = Kinetic analysis and FUPI peptide distribution in vivo in LLC or B16 tumor-bearing mice
Protocol: FIGS. 7A-C. Pharmacokinetics of UPI peptide in ex vivo plasma and tumor vessels. (FIG. 7A) Biotinylated-UPI peptide was incubated in ex vivo plasma at 1 μg/ml concentration. The remaining biotin-labeled UPI peptide was quantified by ELISA as indicated at different time point, n=5; (FIG. 7B) FUPI peptide (10 mg/kg, one injection) was i.v.-injected into mice bearing B16 tumors. A time course was scheduled to sacrifice mice as indicated from 2-48 hrs.
FIG. 8. FUPI peptide specifically homes to tumors. B16 tumor-bearing mice were sacrificed at 24-hr time point after control (PBS) or FUPI peptide injection (10 mg/kg, i.v-injection). Tumor and major organs were stained with CD31 (red) and imaged at red channel (CD31), blue channel (DAPI) and green channel (FUPI). Note that green (FITC) is seen only in tumors. […] Other major organs (liver, lung, heart, spleen, kidney, colon, brain, etc) are free of green color, n=4; scale bar: 200 μm.
LLC or B16 tumor-bearing mice were intravenously injected with 20 mg/kg FUPI peptide then sacrificed at different time points. […] FITC and CD31 fluorescent intensity was quantified using Metamorph software. The number of FUPI and CD31-positive vessels were counted and presented as a percentage of FUPI-positive vessels-to-total CD31-positive vessels.

[4] = tested on: Lewis lung carcinoma (LLC) tumors; assay: Subcutaneous LLC tumor model; set-up: species or system mice; conditions: mouse, in vivo
Excerpt: C56BL/6 mice and TRAMP prostate cancer models were obtained from Jackson Laboratory. SCID/NOD immune-deficient mice were purchased from Charles River Labs (Wilmington, Mass.). WT-Flk, EC-iDKO, EC-iDKO-Flk and EC-iDKO-Notch mice were generated by crossing conditional double knockout mice (EC-iDKO) with Flk-1^fl/fl or NICD^LSL mice as described in (FIGS. 13A-D) (Pasula et al., 2012; Tessneer et al., 2014). All animal protocols have been approved by the IACUC in Oklahoma Medical Research Foundation. Animal tumor models were established as follows: • (1) Subcutaneous Tumor Models (LLC, melanoma B16 and glioma U87/SCID): LLC, melanoma and glioma tumor models were established as previously described (Pasula et al., 2012). Synthetic peptides were administered at 10 mg/kg intravenously every second day beginning after small tumors were established (20-50 mm^3; approximately 12 days post implantation). Tumor volumes were monitored every other day until euthanized following IACUC tumor scoring system. • (2) TRAMP Prostate Tumor Model (Transgenic Adenocarcinoma of Mouse Prostate). […] Mortality rates were recorded. Prostate tumors were analyzed by weighing genitourinary tract (GU), H&E staining, IHC, IF staining and Western blotting as previously described (Pasula et al., 2012; Tessneer et al., 2013). Lymph nodes, lung, liver, spleen and bones were similarly analyzed for metastasis. • (3) B16 Melanoma Metastasis Model. […] Mice were sacrificed after 5 weeks and tissues (including lung, liver and lymph nodes, etc.) were harvested and analyzed for metastasis by gross morphology, H&E, IHC or IF staining, as well as Western blotting. • (4) Orthotopical Glioma Tumor Models (U87/SCID and GL261/C56BL/6). […] Tumors were monitored by MRI as previously described (Pasula et al., 2012). […] Tumor volume was analyzed by MRI every other day until the mice died or were euthanized following IACUC tumor scoring system. Mortality rates were recorded. […]

CC(C)(C)[N+]([O-])=Cc1ccccc1 [PBN, phenyl N-tert-butyl nitrone]
tissue distribution ([1]; rat, in vivo): readily and rapidly distributed almost equally to all tissues | half-life ([1]; rats): about 132 minutes | tumor development (gliomas) (gliomas): able to control tumor development

CC[C@@H](C)[C@@H](NC(=O)[C@@H](CS)NC(=O)CNC(=O)[C@@H](CCSC)NC(=O)[C@@H](CCC(=O)O)NC(=O)[C@@H](CCC(=O)O)NC(=O)[C@@H](CCCCN)NC(=O)[C@@H](CO)NC(=O)[C@@H](CCSC)NC(=O)[C@@H](C)NC(=O)[C@@H](CC(C)C)NC(=O)[C@@H](C)NC(=O)[C@@H](CC(C)C)NC(=O)[C@@H](CCC(N)=O)NC(=O)[C@@H](CC(C)C)NC(=O)[C@@H](CCC(N)=O)NC(=O)[C@@H](CC(C)C)NC(=O)[C@@H](CCC(=O)O)NC(=O)[C@@H](CCC(=O)O)NC(=O)[C@@H](CCC(=O)O)NC(=O)CNC(=O)[C@H](N)CO)C(=O)N[C@H](CCCCN)C(=O)N[C@H](CO)C(=O)N[C@H](CCCCN)C(=O)N[C@H](CCCNC(=N)N)C(=O)N[C@H](CCCCN)C(=O)N[C@@H]1CSSC[C@H](C(=O)O)NC(=O)[C@@H](CC(=O)O)NC(=O)[C@H]2CCCN2C(=O)CNC(=O)[C@@H](CCCCN)NC(=O)[C@@H](CC(=O)O)NC(=O)CNC(=O)[C@@H](CCCNC(=N)N)NC1=O [UPI peptide] (H-[dS]G[dE][dE][dE][dL][dQ][dL][dQ][dL][dA][dL][dA][dM][dS][dK][dE][dE][dM]G[dC][dI][dK][dS][dK][dR][dK][dC][dR]G[dD][dK]G[dP][dD][dC]-OH; disulfide 28-36; N-terminus and C-terminus assumed)
ALT ([2]; 10 mg/kg): 63.5 ± 10.8 U/L | AST ([2]; 10 mg/kg): 62.3 ± 3.6 U/L | BUN ([2]; 10 mg/kg): 18.0 ± 0.8 mg/dL | CK ([2]; 10 mg/kg): 163.5 ± 50.0 U/L | CREA ([2]; 10 mg/kg): 0.173 ± 0.02 mg/dL | GGT ([2]; 10 mg/kg): <5 U/L | LDH ([2]; 10 mg/kg): 397.8 ± 26.0 U/L | TBIL ([2]; 10 mg/kg): <0.01 mg/dL | ALT ([2]; 25 mg/kg): 65.3 ± 4.0 U/L | AST ([2]; 25 mg/kg): 55.0 ± 5.3 U/L | BUN ([2]; 25 mg/kg): 18.7 ± 2.5 mg/dL | CK ([2]; 25 mg/kg): 165.7 ± 8.6 U/L | CREA ([2]; 25 mg/kg): 0.160 ± 0.02 mg/dL | GGT ([2]; 25 mg/kg): <5 U/L | LDH ([2]; 25 mg/kg): 365.7 ± 77.9 U/L | TBIL ([2]; 25 mg/kg): <0.01 mg/dL | ALT ([2]; 50 mg/kg): 71.7 ± 6.0 U/L | AST ([2]; 50 mg/kg): 52.0 ± 4.4 U/L | BUN ([2]; 50 mg/kg): 21.0 ± 2.0 mg/dL | CK ([2]; 50 mg/kg): 153.7 ± 33.9 U/L | CREA ([2]; 50 mg/kg): 0.180 ± 0.02 mg/dL | GGT ([2]; 50 mg/kg): <5 U/L | LDH ([2]; 50 mg/kg): 481.5 ± 12.1 U/L | TBIL ([2]; 50 mg/kg): <0.01 mg/dL | kidney, liver or muscle functions (biomarker analysis, PBS vs UPI peptide-treated mice) ([2]; Table 3): no statistical differences in kidney, liver or muscle functions | ALB ([2]; 10 mg/kg): 1.98 ± 0.1 | ALB ([2]; 25 mg/kg): 2.0 ± 0.1 | ALB ([2]; 50 mg/kg): 2.2 ± 0.2

CGNKRTRGCSGEEELQLQLALAMSKEE [Lyp-UIM peptide]
atherosclerotic lesion development (arch) (atherosclerotic lesion): significantly attenuated atherosclerotic lesion development (arch) | atherosclerotic lesion development (root) (atherosclerotic lesion): significantly attenuated atherosclerotic lesion development (root) | macrophage infiltration (atherosclerosis lesion; mouse, in vivo): reduced macrophage infiltration | atherosclerosis lesion development (atherosclerosis lesion; western diet): greatly reduced atherosclerosis lesion development

FUPI: FITC-conjugated UPI peptide ({FITC}-[dS]G[dE][dE][dE][dL][dQ][dL][dQ][dL][dA][dL][dA][dM][dS][dK][dE][dE][dM]G[dC][dI][dK][dS][dK][dR][dK][dC][dR]G[dD][dK]G[dP][dD][dC]; disulfide 28-36 (inferred); not fully specified)
peptide accumulation in HUVEC^αvβ3 versus HUVEC (HUVEC^αvβ3 cells; FITC-conjugated peptide, 10 μM, 15 hr): accumulated selectively in HUVEC^αvβ3, but not in HUVEC alone | intracellular localization of accumulated peptide (HUVEC^αvβ3 cells; HUVEC^αvβ3): highly enriched at the plasma membrane | retention within vessels of tumors after injection ([3]; B16 melanoma tumors, one i.v. injection): up to 48 hours | tissue distribution after intravenous injection ([3]; subcutaneous LLC or B16 melanoma tumors): significant concentration within tumor vasculature, but not other major organs

QEEEELQLALALSQSEAEEKMGCIKSKRKCRGDKGPDC [Hrs-UIM]
tumor growth in LLC tumor-bearing mice, variant peptides [4]: neither Eps15-UIM nor Hrs-UIM peptides affected tumor growth

SEEDMIEWAKRESEREEEQRMGCIKSKRKCRGDKGPDC [Eps15-UIM]
tumor growth in LLC tumor-bearing mice, variant peptides [4]: neither Eps15-UIM nor Hrs-UIM peptides affected tumor growth
